# “Also recorded” adds a separate entry of the source. Peptide text beside a SMILES is read from it. * marks the point of attachment. Cbz = O=C(OCc1ccccc1)*
# How the values were obtained:
# [1] = tested on: PPARγ2; experiment: PPARγ2 accumulation after proteasomal inhibition in c-Abl-depleted 3T3-L1 cells (immunoblotting); type: cell-based, mouse; details: c-Abl-depleted 3T3-L1, day 5 of differentiation, 25 μg MG-132, lysed after 5 h
# Experimental: FIGS. 2A-C illustrate that c-Abl prolongs PPARγ2 half-life. (A) Proteasomal inhibition in mid-differentiation results in PPARγ2 accumulation. 3T3-L1 cells expressing shRNA to GFP (control) or c-Abl were induced to differentiate using insulin, dexamethasone and IBMX. On day 5, cells were treated with 25 μg MG-132 and lysed after 5 h. Protein levels were analyzed by immunoblotting. (B) c-Abl stabilizes PPARγ2. HEK293 cells were transfected with plasmids expressing HA-PPARγ2 with or without active c-Abl. Twenty-four hours after transfection, cells were treated with 20 μg/ml cycloheximide for different time points. […] The ratio between immunoprecipitated poly-ubiquitinated PPARγ2 ladder and PPARγ2 protein level from 3 independent experiments was quantified (*** −p<0.005).
# The present inventors investigated whether c-Abl might play a role in PPARγ2 accumulation. […] Next, the present inventors measured PPARγ2 protein half-life in the presence or absence of an active form of c-Abl (41-81 c-Abl). […] To investigate the possibility that c-Abl supports PPARγ2 stabilization via inhibition of the poly-ubiquitination of PPARγ2, an octameric tandem fusion of HA-tagged ubiquitin was co-expressed together with Flag-tagged PPARγ2 with or without active c-Abl and the pattern of the poly-ubiquitinated PPARγ2 ladder was analyzed.
# [2] = tested on: CML patients; details: Fitter S, et al. (2010); cited from earlier work
# [3] = tested on: 3T3-L1 cells; experiment: Adipocyte differentiation of 3T3-L1 cells, oil red O staining; type: cell-based, mouse
# Experimental: FIGS. 1A-E illustrate that c-Abl is required for adipocyte differentiation. (A) c-Abl activity increases during adipogenesis. 3T3-L1 adipoblasts were induced to differentiate with medium containing 5 μg/ml Insulin, 1 μM Dexamethasone and 0.5 mM IBMX. Cells were lysed at the indicated times and protein levels were analyzed by Western blotting. The proteasomal subunit PSMA4 served as a loading control. […] Cells were stained with oil red O and photographed at day 8. (C) c-Abl is required in adipocyte differentiation. 3T3-L1 expressing shRNA against either GFP or c-Abl were induced to differentiate and stained with oil red 0 at day 10. (D) c-Abl is required for expression of PPARγ and its target genes during adipogenesis. 3T3-L1 cells expressing shRNA against either GFP or c-Abl were induced to differentiate as in (A). Cells were lysed at the indicated times and protein levels were analyzed by Western blotting. (E) c-Abl is required for transcription of PPARγ pro-adipogenic target genes but not for transcription of PPARγ itself. At day 4 of differentiation, RNA from 3T3-L1 cells was analyzed for mRNA expression of the indicated genes by quantitative PCR.
# FIG. 15 are photographs illustrating differentiation of 3T3-L1 preadipocytes with or without Chk1 inhibitor, UCN-01. […]
# [4] = tested on: mesenchymal stromal cells; details: Fitter S, et al. (2008); cited from earlier work
# [5] = tested on: PPARγ2 (wild type, Flag-tagged)
# [6] = tested on: HA-PPARγ1
# [7] = tested on: PPARγ2 P12A variant
compound,measurement,setting,value
CC(C)C[C@@H](C=O)NC(=O)[C@H](CC(C)C)NC(=O)[C@H](CC(C)C)NC(=O)OCc1ccccc1 [MG-132] (Cbz-Leu-Leu-Leu-aldehyde),PPARγ2 protein level,[1],markedly increased
"Cc1ccc(NC(=O)c2ccc(CN3CCN(C)CC3)cc2)cc1Nc1nccc(-c2cccnc2)n1 [STI-571, imatinib]",fat accumulation,[2],associated with fat accumulation
same,insulin sensitivity,[2],improved insulin sensitivity
same,adipogenesis (adipocyte differentiation),"[3]; 3T3-L1 induced with insulin, dexamethasone, IBMX, STI-571 added 7 hours after differentiation onset until day 5, oil red O at day 8, even at low inhibitor concentration",markedly reduced; also recorded: inhibits adipocyte differentiation
same,adipocytic differentiation of mesenchymal stromal cells,[4],promote adipocytic differentiation
CN[C@@H]1C[C@H]2O[C@@](C)([C@@H]1OC)n1c3ccccc3c3c4c(c5c6ccccc6n2c5c31)C(=O)N[C@@H]4O [UCN-01],differentiation of 3T3-L1 preadipocytes,[3]; with or without Chk1 inhibitor UCN-01 (FIG. 15),completely inhibit
c-Abl Δ1-81 (active form of c-Abl),tyrosine phosphorylation of PPARγ2 detected with anti-phosphotyrosine antibody (PY20) after immunoprecipitation,[5],"unlike HA-PPARγ2, HA-PPARγ1 was only poorly phosphorylated by c-Abl (FIG. 3D). Similar results were obtained using Flag-PPARγ2"
same,tyrosine phosphorylation detected with anti-phosphotyrosine antibody (PY20) after immunoprecipitation using anti-HA beads,[6],HA-PPARγ1 was only poorly phosphorylated by c-Abl
same,tyrosine phosphorylation detected with anti-phosphotyrosine antibody (PY20) after immunoprecipitation using anti-Flag beads,[7],the P12A variant was inefficient in binding to c-Abl and in undergoing phosphorylation by the kinase

# From patent publication US20170298361A1, “USE OF AGENTS FOR TREATING FAT-RELATED DISORDERS” (Yeda Research and Development Co. Ltd., priority 2014, published 2017)
